What all share (type): physicochemical
Data set [1] can be described thus: Effect of pH on stability, 16.7% v/v ethanol:0.1M citrate buffers. Conditions: 0.2 mg drug/mL, 2 days at 85° C. As for the experimental part: (§1) The effect of pH on the drug substance stability was also studied. The buffer pH providing maximum stability was determined by comparing the stability of prototype formulations of the drug substance. […] Relative area percents of drug peaks were evaluated following 2 days storage at 85° C. […] Subsequent experiments evaluated stability (1 mg drug/mL) in 75% v/v ethanol:0.01M tartrate buffer. Three mL aliquots of samples were dispensed into 5 cc Type I glass vials and closed with West 4405/50 20 mm stoppers. Percent drug substance remaining, impurities and degradants were evaluated following 18 days storage at 50° C. and compared to initial values.

Data set [2] is described as follows: Intrinsic aqueous solubility. Conditions: desirable physiological pH range. From the text:
Therefore, it was necessary to formulate the compound in such a way to get the desired solubility at a physiological pH and maintain stability prior to administration.

The nature of data set [3]: Stability in solution containing ethanol and POE castor oil at 50° C. From the text: However, as shown below in Table IV, drug degradation occurs in a solution containing ethanol and POE castor oil due to peroxide impurities present in POE castor oil. […] As shown below, the stability of the solution containing POE castor oil was much lower than the injection solution without the co-solvent.

Data set [4] in a line: Dilution of 15 mg/mL ethanol/tartrate solution with aqueous diluents. The conditions noted are these: 15 mg/mL in 75% ethanol/10 mM tartrate buffer diluted with 0.9% sodium chloride injection or 5% dextrose injection.
A short description of data set [5]: Stability of antioxidant formulation at 25° C. for 4 months. Conditions: for Appearance / Potency / pH: formulation with 0.1% each of three antioxidants. As for the experimental part: A formulation containing 1.5 mg/mL of Compound 1a, 0.075 mL/mL of ethanol, 0.04 mL/mL of POE castor oil in a tartrate buffer and containing 0.1% each of sodium formaldehyde sulfoxylate, L-cysteine HCl and ascorbic acid was prepared. Samples were placed on stability at 25° C. for 4 months. […] Additionally, there were no changes in potency or total oxidative degradants for the samples.

Data set [6] in a line: Effect of pH on stability, 75% v/v ethanol:0.01M tartrate buffer. The conditions noted are these: 18 days at 50° C. The protocol:
as §1

Data set [7] in a line: Solubility in solutions of dehydrated alcohol and POE castor oil. The conditions noted are these: Dehydrated Alcohol 7.50% v/v, POE Castor Oil 4% v/v. As for the experimental part: However, this solution cannot be injected directly into patients as the non-aqueous components exceed 20%, thus potentially causing irritation at the injection site. […] It has been shown that the precipitation can be avoided by inclusion of a co-solvent such as polyoxyethylated (POE) castor oil in the formulation. Subsequently, solubility of the drug substance was determined in solutions containing various amounts of dehydrated alcohol and POE castor oil. Approximately 20 mg of drug was added to 3 mL aliquots of the solutions shown below in Table III. Samples were stirred for 16 hours, filtered trough 0.45 micron nylon syringe filters and analyzed by HPLC for drug concentration.

[8] abbreviates: during 4 months of storage at 25° C.

≈ marks a conversion by molar mass, not a printed value.

On to `CSCO[C@H]1C[C@H]2OC[C@@]2(OC(C)=O)[C@H]2[C@H](OC(=O)c3ccccc3)[C@]3(O)C[C@H](OC(=O)[C@H](O)[C@@H](NC(=O)c4ccccc4)c4ccccc4)C(C)=C([C@@H](OC(C)=O)C(=O)[C@]12C)C3(C)C` [Compound Ia, 7-O-methylthiomethylpaclitaxel], for which the “buffer pH of best stability” value in data set [1] came out at 4.5. The ionization result in data set [2] is reported as “does not ionize”. Moreover, the “Total Impurities” value in data set [3] (6 days @ 50° C.) stood at 10.9 area %. Further, in data set [3] (16 days @ 50° C.), the “Total Impurities” value stood at 16.5 area %. In data set [3] (Initial), the “Total Impurities” value worked out at 2.1 area %. In addition, the “effect of aqueous dilution” value in data set [4] is given as “drug precipitation”. Besides, in data set [5] (setting [8]), the “changes in appearance or pH” value is “no significant changes” and the “changes in potency or total oxidative degradants” value is recorded as “no changes”. In data set [5] (2 Month at 25° C.), the Appearance result was “Clear, colorless”; the Potency is 1460 µg/mL (≈ 1600 µM); the pH was 3.56. For the same compound, in data set [5] (4 Month at 25° C.), the Appearance entry is reported as “Clear, colorless”; the Potency was 1480 µg/mL (≈ 1620 µM); the pH was found to be 3.57. Also, in data set [5] (Initial), the Appearance entry was “Clear, colorless”; the Potency came to 1440 µg/mL (≈ 1580 µM); the pH is 3.71. In data set [6], the “apparent pH of most stable solution” value is 5.4 and the “tartrate buffer pH of most stable solution” value was 3.8. Further, the Solubility (usually how much of the substance goes into solution per volume) in data set [7] was determined as 2380 µg/mL (≈ 2600 µM).

These data come from patent US20050054716A1, “Pharmaceutical compositions and methods of using taxane derivatives” (priority 2002, published 2005).
